Assay results from patent publication US5075224A, “Prepro-LHRH C-terminal peptide DNA” (Genentech, Inc., priority 1991, dated 1991).
Ends that are not written are not given here. Peptide text beside a SMILES is read from it.

System: Pituitary cells from female Sprague-Dawley rats
Assay: LH and FSH release from rat pituitary cell culture
Format: cell-based
Method: Pituitary cells from female Sprague-Dawley rats were established in cell culture by the method of K. Nikolics et al., "Peptides" 2: 65-73 (1981). 1 ml of about 1×10^-8 molar concentration of GAP or LHRH in medium 199 (a nutrient medium) was added to a four day pituitary cell culture per 5×10^5 cells. After 4 hours incubation at 37° C. in 5 percent CO2 /95 percent air the cell culture supernatant fluids were assayed for release of LH and FSH.
The anterior pituitary cell culture from female Sprague-Dawley rats was prepared as described in Example 6. In FIG. 7A the indicated concentrations of GAP (open circles, 10^-11 M; open squares, 3×10^-11 M; closed circles 10^-10 M; open squares, triangle 10^-8 M) were incubated with 5×10^5 cells/ml medium in 24-well culture plates for the indicated time. Media were assayed for PRL and values were expressed in terms of rPRL-RP-2 reference protein (National Pituitary and Hormone Program). The points are means ± standard deviation of four parallel culture wells of which duplicate samples were assayed by RIA. Basal levels were determined from eight parallel wells. The curves shown represent data obtained in three to five independent cell cultures.

[1] = 10^-8 M test sample, 4 hours incubation at 37° C., four day pituitary cell culture, supernatant

CC(C)C[C@H](NC(=O)[C@H](CC(=O)O)NC(=O)[C@H](CCCNC(=N)N)NC(=O)[C@H](CC(C)C)NC(=O)[C@@H]1CCCN1C(=O)[C@H](CO)NC(=O)[C@H](CCCNC(=N)N)NC(=O)[C@@H]1CCCN1C(=O)[C@H](CCC(N)=O)NC(=O)[C@H](Cc1c[nH]cn1)NC(=O)[C@@H](NC(=O)[C@@H](NC(=O)[C@@H](N)CS)[C@@H](C)O)[C@@H](C)O)C(=O)N[C@@H](CCCCN)C(=O)O [CTP-core polypeptide of Example 4, NH2 -cys-thr-thr-his-gln-pro-arg-ser-pro-leu-arg-asp-leu-lys-COOH] (H-CTTHQPRSPLRDLK-OH)
activity in LH and FSH release (in words) (rat pituitary cells): active in LH and FSH release, albeit at higher concentrations than required for GAP

CC(C)C[C@H](NC(=O)CNC(=O)[C@H](Cc1ccc(O)cc1)NC(=O)[C@H](CO)NC(=O)[C@H](Cc1c[nH]c2ccccc12)NC(=O)[C@H](Cc1c[nH]cn1)NC(=O)[C@@H]1CCC(=O)N1)C(=O)N[C@@H](CCCNC(=N)N)C(=O)N1CCC[C@H]1C(=O)NCC(N)=O [LHRH]
FSH (pg)/5 × 10^5 cells [1]: 11403 ± 350 pg/5 × 10^5 cells
LH (pg)/5 × 10^5 cells [1]: 30503 ± 3342 pg/5 × 10^5 cells
EC50 (rat anterior pituitary cells, read-out: Half-maximal stimulation of LH release): 0.8 nM

DAENLIDSFQEIVKEVGQLAETQRFECTTHQPRSPLRDLKGALESLIEEETGQKKI [GAP]
ED50 of stimulation of FSH secretion: ~500 pM
